Test results from patent US12396459B2, “Synergistically effective herbicide composition comprising pyridate and at least one defined 4-HPPD inhibitor” (BELCHIM CROP PROTECTION NV, priority 2018, dated 2025).

Assays:
Format in all cases: in vivo
Abutilon theophrasti = experiment: Field trial post-emergence in maize: ABUTH; details: 31-48 DAA; # = 2; g a.c./ha: PYR 300, MES 100, PYR + MES 300 + 90
Method: (§1) Herbicidal activity of herbicide compositions according to the first aspect of the present invention with regard to different types of unwanted vegetation was determined during trials performed on test fields (field trials). Individual compositions comprising pyridate and individual compositions comprising a defined 4-HPPD inhibitor are compared with a herbicide composition according to the invention comprising both pyridate and a defined 4-HPPD inhibitor. The expected activity of the combination of the active compounds pyridate and a defined 4-HPPD inhibitor is calculated according to above mentioned calculation method by Colby, in order to evaluate a synergistic effect between pyridate and a defined 4-HPPD inhibitor.
(§2) Herbicidal activity was determined by applying herbicide compositions on emerged unwanted vegetation on fields where maize was cultivated. Pyridate and a defined 4-HPPD inhibitor were applied as a tank mixture by mixing these active compounds prior to use in a spray tank. The corresponding mixture was in the form of a spray liquor. […] At a specified number of days after application (DAA), the degree of damage to the unwanted vegetation is rated in % of plants of unwanted vegetation that were killed, which was assessed by visually controlling the plants.

Digitaria sanguinalis = experiment: Field trial post-emergence in maize: DIGSA; details: g a.c./ha: PYR 300, MES 100, PYR + MES 300 + 90
Method: as §1
(§3) Herbicidal activity was determined by applying herbicide compositions on emerged unwanted vegetation on fields where maize was cultivated. Pyridate and a defined 4-HPPD inhibitor were applied as a tank mixture by mixing these active compounds prior to use in a spray tank. The corresponding mixture was in the form of a spray liquor. Besides, spray liquors of individual compositions comprising pyridate and of individual compositions comprising a defined 4-HPPD inhibitor were used. Test plants of unwanted vegetation with a growth stage corresponding to BBCH 10-18 (according to the extended BBCH-scale) were sprayed with the active compound preparations such that particular desired amounts of active compounds are applied per unit area. Spray liquor was diluted with water to arrive at an application volume of 50 to 450 L/ha. At a specified number of days after application (DAA), the degree of damage to the unwanted vegetation is rated in % of plants of unwanted vegetation that were killed, which was assessed by visually controlling the plants.

Poa annua [1] = experiment: Field trial post-emergence in maize: POAAN; details: for herbicidal effect (h.e.): g a.c./ha: PYR 300, MES 100, PYR + MES 300 + 90
Method: as §1, §3

Solanum nigrum = experiment: Field trial post-emergence in maize: SOLNI; details: for herbicidal effect (h.e.): g a.c./ha: PYR 300, MES 100, PYR + MES 300 + 90
Method: as §1, §3

Sonchus oleraceus = experiment: Field trial post-emergence in maize: SONOL; details: # = 1, g a.c./ha: PYR 300, MES 100, PYR + MES 300 + 90
Method: as §1, §3

Xanthium spinosum = experiment: Field trial post-emergence in maize: XANSP; details: 7-14 DAA; # = 3; g a.c./ha: PYR 300, MES 100, PYR + MES 300 + 90
Method: as §1, §2

Amaranthus retroflexus = experiment: Field trial post-emergence in maize: AMARE; details: 13-14 DAA; # = 1; g a.c./ha: PYR 450, MES 144, PYR + MES 450 + 144
Method: as §1, §3

Echinochloa crus-galli = experiment: Examples 6-8 herbicidal effect: ECHCG; details: 7 DAA
Poa annua [2] = experiment: Examples 6-8 herbicidal effect: POAAN; details: 7 DAA
Chenopodium album = experiment: Examples 6-8 herbicidal effect: CHEAL; details: 7 DAA
Atriplex patula = experiment: Field trial post-emergence in maize: ATXPA
Method: as §1, §3
(§4) Example 1 concerns a herbicide composition comprising a combination of pyridate and mesotrione, which was applied post-emergence on unwanted vegetation on a field where maize was cultivated, according to the test conditions mentioned above.

Erodium ciconium = experiment: Field trial post-emergence in maize: EROCC
Method: as §1, §3, §4

Galium aparine = experiment: Field trial post-emergence in maize: GALAP
Method: as §1, §3, §4

Lamium purpureum = experiment: Field trial post-emergence in maize: LAMPU
Method: as §1, §3, §4

Rumex obtusifolius = experiment: Field trial post-emergence in maize: RUMOB
Method: as §1, §3, §4

[3] = g a.c./ha: MES 50, PYR + SMO 300 + 800
[4] = g a.c./ha: MES 80, PYR + MES 300 + 50

Q: Which results are given for CS(=O)(=O)c1ccc(C(=O)C2C(=O)CCCC2=O)c([N+](=O)[O-])c1 [MES, 2-(4-methylsulfonyl-2-nitrobenzoyl) cyclohexane-1,3-dione]?
A: herbicidal effect (h.e.) (Abutilon theophrasti): 91%; herbicidal effect (h.e.) (Digitaria sanguinalis; 7-14 DAA, # = 2): 53%; herbicidal effect (h.e.) (Digitaria sanguinalis; 18-28 DAA, # = 2): 47%; herbicidal effect (h.e.) (Digitaria sanguinalis; 31-48 DAA, # = 1): 54%; herbicidal effect (h.e.) (Poa annua [1]; 7-14 DAA, # = 2): 39%; herbicidal effect (h.e.) (Poa annua [1]; 18-28 DAA, # = 3): 36%; herbicidal effect (h.e.) (Poa annua [1]; 31-48 DAA, # = 2): 27%; MES h.e. (Poa annua [1]; POAAN 14-20 DAA 45 g a.c./ha): 24%; MES h.e. (Poa annua [1]; POAAN 14-20 DAA 90 g a.c./ha): 48%; MES h.e. (Poa annua [1]; POAAN 14-20 DAA 135 g a.c./ha): 58%; MES h.e. (Poa annua [1]; POAAN 24-31 DAA 45 g a.c./ha): 17%; MES h.e. (Poa annua [1]; POAAN 24-31 DAA 90 g a.c./ha): 22%; MES h.e. (Poa annua [1]; POAAN 24-31 DAA 135 g a.c./ha): 38%; herbicidal effect (h.e.) (Solanum nigrum; 18-28 DAA, # = 7): 91%; herbicidal effect (h.e.) (Solanum nigrum; 31-48 DAA, # = 6): 93%; MES h.e. (Solanum nigrum; SOLNI 14-20 DAA 45 g a.c./ha): 95%; herbicidal effect (h.e.) (Sonchus oleraceus; 7-14 DAA): 90%; herbicidal effect (h.e.) (Sonchus oleraceus; 18-28 DAA): 54%; herbicidal effect (h.e.) (Sonchus oleraceus; 31-48 DAA): 41%; herbicidal effect (h.e.) (Xanthium spinosum): 97%; herbicidal effect (h.e.) (Amaranthus retroflexus): 45%; herbicidal effect (h.e.) (Echinochloa crus-galli; [3]): 70%; herbicidal effect (h.e.) (Echinochloa crus-galli; [4]): 73%; herbicidal effect (h.e.) (Poa annua [2]; [3]): 0%; herbicidal effect (h.e.) (Poa annua [2]; [4]): 3%; herbicidal effect (h.e.) (Chenopodium album; [3]): 77%; herbicidal effect (h.e.) (Chenopodium album; [4]): 92%; MES h.e. (Atriplex patula; ATXPA 24-31 DAA 90 g a.c./ha): 97%; MES h.e. (Atriplex patula; ATXPA 24-31 DAA 135 g a.c./ha): 97%; MES h.e. (Erodium ciconium; EROCC 14-20 DAA 90 g a.c./ha): 32%; MES h.e. (Erodium ciconium; EROCC 14-20 DAA 135 g a.c./ha): 33%; MES h.e. (Galium aparine; GALAP 14-20 DAA 45 g a.c./ha): 30%; MES h.e. (Galium aparine; GALAP 14-20 DAA 90 g a.c./ha): 80%; MES h.e. (Galium aparine; GALAP 14-20 DAA 135 g a.c./ha): 92%; MES h.e. (Galium aparine; GALAP 24-31 DAA 45 g a.c./ha): 40%; MES h.e. (Galium aparine; GALAP 24-31 DAA 90 g a.c./ha): 90%; MES h.e. (Galium aparine; GALAP 24-31 DAA 135 g a.c./ha): 91%; MES h.e. (Lamium purpureum; LAMPU 14-20 DAA 45 g a.c./ha): 93%; MES h.e. (Lamium purpureum; LAMPU 14-20 DAA 90 g a.c./ha): 98%; MES h.e. (Lamium purpureum; LAMPU 14-20 DAA 135 g a.c./ha): 99%; MES h.e. (Lamium purpureum; LAMPU 24-31 DAA 45 g a.c./ha): 89%; MES h.e. (Lamium purpureum; LAMPU 24-31 DAA 90 g a.c./ha): 95%; MES h.e. (Rumex obtusifolius; RUMOB 14-20 DAA 45 g a.c./ha): 87%; MES h.e. (Rumex obtusifolius; RUMOB 14-20 DAA 90 g a.c./ha): 95%; MES h.e. (Rumex obtusifolius; RUMOB 14-20 DAA 135 g a.c./ha): 95%
